In patent US20240024273A1, “TOPICAL ADMINISTRATION OF 2-(DIETHYLAMINO)ETHYL 2-(4-ISOBUTYLPHENYL)PROPRIONATE FOR TREATMENT OF DISEASES” (TECHFIELDS PHARMA CO., LTD., priority 2020, published 2024):

System: Subjects with Osteoarthritis of the Knee
Experiment: Second Phase 2 study: safety (treatment-emergent adverse events)
Format: in vivo, human
Excerpt: Safety assessments will be performed at each visit and will include assessment of AEs, vital signs (blood pressure, pulse rate, and oral temperature), clinical laboratories, physical examination, skin irritation, and electrocardiograms (ECGs) as indicated in the study flow chart, Table 47.
Safety assessments will include AEs, vital signs (blood pressures, pulse rate, and oral temperature), clinical laboratories, physical examination, skin irritation, and ECGs at various time points during the study as indicated in the study flow chart.
Adverse events of interest include: local skin reactions around the treated knee(s), upper stomach pain, GI bleeding, serious cardiovascular side effects (e.g., thrombotic events, myocardial infarction, or stroke), jaundice, elevated liver function tests, and nausea.
Safety analyses will be conducted on the SAS. Safety parameters will be listed and summarized using standard descriptive statistics, as appropriate. No formal statistical analyses are planned.

SMILES: CCN(CC)CCOC(=O)C(C)c1ccc(CC(C)C)cc1 (stereo not drawn) [2-(diethylamino)ethyl 2-(4-isobutylphenyl)propionate]
- Abdominal Discomfort: percentage of subjects with adverse events (8.75 mg/knee, BID, N = 70): 4.3%
- Abdominal Discomfort: subjects with adverse events (8.75 mg/knee, BID, N = 70): 3
- Abdominal Pain Upper: number of adverse events (8.75 mg/knee, BID, N = 70): 1
- Abdominal Pain Upper: percentage of subjects with adverse events (8.75 mg/knee, BID, N = 70): 1.4%
- Abdominal Pain Upper: subjects with adverse events (8.75 mg/knee, BID, N = 70): 1
- Administration Site Conditions: number of adverse events (8.75 mg/knee, BID, N = 70): 1
- Administration Site Conditions: percentage of subjects with adverse events (8.75 mg/knee, BID, N = 70): 1.4%
- Administration Site Conditions: subjects with adverse events (8.75 mg/knee, BID, N = 70): 1
- Alanine Aminotransferase Increased: number of adverse events (8.75 mg/knee, BID, N = 70): 1
- Alanine Aminotransferase Increased: percentage of subjects with adverse events (8.75 mg/knee, BID, N = 70): 1.4%
- Alanine Aminotransferase Increased: subjects with adverse events (8.75 mg/knee, BID, N = 70): 1
- Application Site Irritation: number of adverse events (8.75 mg/knee, BID, N = 70): 1
- Application Site Irritation: percentage of subjects with adverse events (8.75 mg/knee, BID, N = 70): 1.4%
- Application Site Irritation: subjects with adverse events (8.75 mg/knee, BID, N = 70): 1
- Back Pain: number of adverse events (8.75 mg/knee, BID, N = 70): 2(%)[2]
- Back Pain: subjects with adverse events, number (percentage) (8.75 mg/knee, BID, N = 70): 2(%)[2]
- Blood Lactate Dehydrogenase Increased: number of adverse events (8.75 mg/knee, BID, N = 70): 1
- Blood Lactate Dehydrogenase Increased: percentage of subjects with adverse events (8.75 mg/knee, BID, N = 70): 1.4%
- Blood Lactate Dehydrogenase Increased: subjects with adverse events (8.75 mg/knee, BID, N = 70): 1
- Diarrhoea: number of adverse events (8.75 mg/knee, BID, N = 70): 2
- Diarrhoea: percentage of subjects with adverse events (8.75 mg/knee, BID, N = 70): 2.9%
- Diarrhoea: subjects with adverse events (8.75 mg/knee, BID, N = 70): 2
- Dizziness: number of adverse events (8.75 mg/knee, BID, N = 70): 2
- Dizziness: subjects with adverse events, number (percentage) (8.75 mg/knee, BID, N = 70): 2(2.9%)
- Ear and Labyrinth Disorders: number of adverse events (8.75 mg/knee, BID, N = 70): 2
- Ear and Labyrinth Disorders: percentage of subjects with adverse events (8.75 mg/knee, BID, N = 70): 2.9%
- Ear and Labyrinth Disorders: subjects with adverse events (8.75 mg/knee, BID, N = 70): 2
- Frequency of Positive Fecal Occult Blood Test (8.75 mg/knee, BID, N = 70): 6
- Gastrointestinal Disorders: number of adverse events (8.75 mg/knee, BID, N = 70): 11
- Gastrointestinal Disorders: percentage of subjects with adverse events (8.75 mg/knee, BID, N = 70): 14.3%
- Gastrointestinal Disorders: subjects with adverse events (8.75 mg/knee, BID, N = 70): 10
- Headache: number of adverse events (8.75 mg/knee, BID, N = 70): 6
- Headache: subjects with adverse events, number (percentage) (8.75 mg/knee, BID, N = 70): 4(5.7%)
- Hypercholesterolaemia: number of adverse events (8.75 mg/knee, BID, N = 70): 5
- Hypercholesterolaemia: percentage of subjects with adverse events (8.75 mg/knee, BID, N = 70): 7.1%
- Hypercholesterolaemia: subjects with adverse events (8.75 mg/knee, BID, N = 70): 5
- Hypertension: number of adverse events (8.75 mg/knee, BID, N = 70): 1
- Hypertension: percentage of subjects with adverse events (8.75 mg/knee, BID, N = 70): 1.4%
- Hypertension: subjects with adverse events (8.75 mg/knee, BID, N = 70): 1
- Hypertriglyceridemia: number of adverse events (8.75 mg/knee, BID, N = 70): 3
- Hypertriglyceridemia: percentage of subjects with adverse events (8.75 mg/knee, BID, N = 70): 4.3%
- Hypertriglyceridemia: subjects with adverse events (8.75 mg/knee, BID, N = 70): 3
- Hypoaesthesia: number of adverse events (8.75 mg/knee, BID, N = 70): 1
- Hypoaesthesia: subjects with adverse events, number (percentage) (8.75 mg/knee, BID, N = 70): 1(1.4%)
- Infections and Infestations: number of adverse events (8.75 mg/knee, BID, N = 70): 20
- Infections and Infestations: subjects with adverse events, number (percentage) (8.75 mg/knee, BID, N = 70): 20(28.6%)
- Influenza: number of adverse events (8.75 mg/knee, BID, N = 70): 1
- Influenza: subjects with adverse events, number (percentage) (8.75 mg/knee, BID, N = 70): 1(1.4%)
- Investigations: number of adverse events (8.75 mg/knee, BID, N = 70): 5
- Investigations: percentage of subjects with adverse events (8.75 mg/knee, BID, N = 70): 7.1%
- Investigations: subjects with adverse events (8.75 mg/knee, BID, N = 70): 5
- Joint Stiffness: number of adverse events (8.75 mg/knee, BID, N = 70): 1(%)[1]
- Joint Stiffness: subjects with adverse events, number (percentage) (8.75 mg/knee, BID, N = 70): 1(%)[1]
- Metabolism and Nutrition Disorders: number of adverse events (8.75 mg/knee, BID, N = 70): 8
- Metabolism and Nutrition Disorders: percentage of subjects with adverse events (8.75 mg/knee, BID, N = 70): 12.9%
- Metabolism and Nutrition Disorders: subjects with adverse events (8.75 mg/knee, BID, N = 70): 8
- Musculoskeletal and Connective Tissue Disorders, Overall Total: number of adverse events (8.75 mg/knee, BID, N = 70): 7
- Musculoskeletal and Connective Tissue Disorders, Overall Total: subjects with adverse events, number (percentage) (8.75 mg/knee, BID, N = 70): 7(10.0%)
- Nausea: number of adverse events (8.75 mg/knee, BID, N = 70): 3
- Nausea: percentage of subjects with adverse events (8.75 mg/knee, BID, N = 70): 4.3%
- Nausea: subjects with adverse events (8.75 mg/knee, BID, N = 70): 3
- Neck Pain: number of adverse events (8.75 mg/knee, BID, N = 70): 3(%)[3]
- Neck Pain: subjects with adverse events, number (percentage) (8.75 mg/knee, BID, N = 70): 3(%)[3]
- Nervous System Disorders: number of adverse events (8.75 mg/knee, BID, N = 70): 8
- Nervous System Disorders: subjects with adverse events, number (percentage) (8.75 mg/knee, BID, N = 70): 7(10.0%)
- Oropharyngeal Pain: number of adverse events (8.75 mg/knee, BID, N = 70): 2
- Oropharyngeal Pain: subjects with adverse events, number (percentage) (8.75 mg/knee, BID, N = 70): 2(1.4%)
- Pain in Extremity: number of adverse events (8.75 mg/knee, BID, N = 70): 1(%)[1]
- Pain in Extremity: subjects with adverse events, number (percentage) (8.75 mg/knee, BID, N = 70): 1(%)[1]
- Respiratory, Thoracic and Mediastinal Disorders: number of adverse events (8.75 mg/knee, BID, N = 70): 3
- Respiratory, Thoracic and Mediastinal Disorders: subjects with adverse events, number (percentage) (8.75 mg/knee, BID, N = 70): 3(4.3%)
- Skin Irritation: number of adverse events (8.75 mg/knee, BID, N = 70): 1
- Skin Irritation: percentage of subjects with adverse events (8.75 mg/knee, BID, N = 70): 1.4%
- Skin Irritation: subjects with adverse events (8.75 mg/knee, BID, N = 70): 1
- Skin and Subcutaneous Tissue Disorders: number of adverse events (8.75 mg/knee, BID, N = 70): 1
- Skin and Subcutaneous Tissue Disorders: percentage of subjects with adverse events (8.75 mg/knee, BID, N = 70): 1.4%
- Skin and Subcutaneous Tissue Disorders: subjects with adverse events (8.75 mg/knee, BID, N = 70): 1
- Subjects with Positive Fecal Occult Blood Test (8.75 mg/knee, BID, N = 70): 5
- Subjects with Positive Fecal Occult Blood Test, percentage (8.75 mg/knee, BID, N = 70): 7.1%
- Throat Irritation: number of adverse events (8.75 mg/knee, BID, N = 70): 1
- Throat Irritation: subjects with adverse events, number (percentage) (8.75 mg/knee, BID, N = 70): 1(1.4%)
- Thrombosis: number of adverse events (8.75 mg/knee, BID, N = 70): 1
- Thrombosis: percentage of subjects with adverse events (8.75 mg/knee, BID, N = 70): 1.4%
- Thrombosis: subjects with adverse events (8.75 mg/knee, BID, N = 70): 1
- Tooth Infection: number of adverse events (8.75 mg/knee, BID, N = 70): 1
- Tooth Infection: subjects with adverse events, number (percentage) (8.75 mg/knee, BID, N = 70): 1(1.4%)
- Toothache: number of adverse events (8.75 mg/knee, BID, N = 70): 1
- Toothache: percentage of subjects with adverse events (8.75 mg/knee, BID, N = 70): 1.4%
- Toothache: subjects with adverse events (8.75 mg/knee, BID, N = 70): 1
- Transaminases Increased: number of adverse events (8.75 mg/knee, BID, N = 70): 1
- Transaminases Increased: percentage of subjects with adverse events (8.75 mg/knee, BID, N = 70): 1.4%
- Transaminases Increased: subjects with adverse events (8.75 mg/knee, BID, N = 70): 1
- Upper Respiratory Tract Infection: number of adverse events (8.75 mg/knee, BID, N = 70): 12
- Upper Respiratory Tract Infection: subjects with adverse events, number (percentage) (8.75 mg/knee, BID, N = 70): 12(15.7%)
- Urinary Tract Infection: number of adverse events (8.75 mg/knee, BID, N = 70): 6
- Urinary Tract Infection: subjects with adverse events, number (percentage) (8.75 mg/knee, BID, N = 70): 6(8.6%)
- Vascular Disorders: number of adverse events (8.75 mg/knee, BID, N = 70): 2
- Vascular Disorders: percentage of subjects with adverse events (8.75 mg/knee, BID, N = 70): 2.9%
- Vascular Disorders: subjects with adverse events (8.75 mg/knee, BID, N = 70): 2
- Vertigo: number of adverse events (8.75 mg/knee, BID, N = 70): 2(%)[2]
- Vertigo: subjects with adverse events (8.75 mg/knee, BID, N = 70): 2(%)[2]
- White Blood Cell Count Decreased: number of adverse events (8.75 mg/knee, BID, N = 70): 2
- White Blood Cell Count Decreased: percentage of subjects with adverse events (8.75 mg/knee, BID, N = 70): 2.9%
- White Blood Cell Count Decreased: subjects with adverse events (8.75 mg/knee, BID, N = 70): 2
- GI disorders incidence rate (17.5 mg/knee (BID)): 5.7%
- incidence rate of AEs possibly, probably, or definitely related to study drug (17.5 mg/knee (BID)): 35.7%
- infections and infestations incidence rate (17.5 mg/knee (BID)): 18.6%
- positive fecal occult blood test incidence rate (17.5 mg/knee (BID)): 7.1%
- Abdominal Discomfort: number of adverse events (17.5 mg/knee, BID, N = 70): 1
- Abdominal Discomfort: percentage of subjects with adverse events (17.5 mg/knee, BID, N = 70): 1.4%
- Abdominal Discomfort: subjects with adverse events (17.5 mg/knee, BID, N = 70): 1
- Abdominal Pain Upper: number of adverse events (17.5 mg/knee, BID, N = 70): 2
- Abdominal Pain Upper: percentage of subjects with adverse events (17.5 mg/knee, BID, N = 70): 1.4%
- Abdominal Pain Upper: subjects with adverse events (17.5 mg/knee, BID, N = 70): 1
- Administration Site Conditions: number of adverse events (17.5 mg/knee, BID, N = 70): 4
- Administration Site Conditions: percentage of subjects with adverse events (17.5 mg/knee, BID, N = 70): 5.7%
- Administration Site Conditions: subjects with adverse events (17.5 mg/knee, BID, N = 70): 4
- Application Site Irritation: number of adverse events (17.5 mg/knee, BID, N = 70): 1
- Application Site Irritation: percentage of subjects with adverse events (17.5 mg/knee, BID, N = 70): 1.4%
- Application Site Irritation: subjects with adverse events (17.5 mg/knee, BID, N = 70): 1
- Application Site Rash: number of adverse events (17.5 mg/knee, BID, N = 70): 3
- Application Site Rash: percentage of subjects with adverse events (17.5 mg/knee, BID, N = 70): 4.3%
- Application Site Rash: subjects with adverse events (17.5 mg/knee, BID, N = 70): 3
